Measurements: ChEMBL document CHEMBL1147593, “Design and synthesis of benzoxazole derivatives as novel melatoninergic ligands” (Bioorg Med Chem Lett, 2004)

What was measured:
[1] = molecular target: T1, Melatonin receptor type 1B (Homo sapiens, UniProt P49286); test: Binding of 2-[125I]iodomelatonin to membrane preparations of NIH3T3 cells stably expressing human Melatonin receptor type 1B; format: cell membranes
T1 sequence (P49286 whole entry): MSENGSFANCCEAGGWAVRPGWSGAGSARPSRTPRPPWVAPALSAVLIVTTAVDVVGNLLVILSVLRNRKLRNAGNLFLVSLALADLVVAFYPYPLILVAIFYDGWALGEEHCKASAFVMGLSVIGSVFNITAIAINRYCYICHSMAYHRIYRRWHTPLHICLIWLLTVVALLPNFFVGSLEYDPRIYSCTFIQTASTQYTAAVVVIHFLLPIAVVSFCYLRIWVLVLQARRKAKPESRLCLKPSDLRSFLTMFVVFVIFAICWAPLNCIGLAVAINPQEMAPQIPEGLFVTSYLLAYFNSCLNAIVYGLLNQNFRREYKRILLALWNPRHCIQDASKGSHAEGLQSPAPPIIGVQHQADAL

[2] = molecular target: Melatonin receptor type 1A (Homo sapiens, UniProt P48039); test: Binding of 2-[125I]iodomelatonin to membrane preparations of NIH3T3 cells stably expressing human Melatonin receptor type 1A; format: cell membranes
Melatonin receptor type 1A, sequence (P48039 whole entry): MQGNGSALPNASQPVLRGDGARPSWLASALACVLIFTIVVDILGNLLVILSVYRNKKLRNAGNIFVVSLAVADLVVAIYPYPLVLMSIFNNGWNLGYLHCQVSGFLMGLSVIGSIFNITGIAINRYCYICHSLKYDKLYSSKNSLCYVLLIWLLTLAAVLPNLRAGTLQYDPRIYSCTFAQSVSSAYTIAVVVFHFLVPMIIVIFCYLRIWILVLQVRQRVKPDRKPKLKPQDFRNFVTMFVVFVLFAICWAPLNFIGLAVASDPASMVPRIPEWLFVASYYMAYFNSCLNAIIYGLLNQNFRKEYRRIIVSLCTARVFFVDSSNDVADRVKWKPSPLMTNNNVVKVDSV

Compound	Ki [1]	Ki [2]
CCc1nc2cccc([C@@H]3C[C@H]3CNC(C)=O)c2o1	0.88 nM	0.35 nM
CCCC(=O)NC[C@@H]1C[C@H]1c1cccc2nc(CCCCc3ccccc3)oc12	0.24 nM	0.05 nM
CCCc1nc2cccc([C@@H]3C[C@H]3CNC(=O)C(C)C)c2o1	0.28 nM	4.9 nM
CC(C)C(=O)NC[C@@H]1C[C@H]1c1cccc2nc(C(C)C)oc12	2.5 nM	1.3 nM
CCC(=O)NC[C@@H]1C[C@H]1c1cccc2nc(CCCCc3ccccc3)oc12	0.07 nM	0.05 nM
CC(=O)NC[C@@H]1C[C@H]1c1cccc2nc(CCCCc3ccccc3)oc12	0.37 nM	0.05 nM
CCCC(=O)NC[C@@H]1C[C@H]1c1cccc2nc(CC)oc12	0.33 nM	0.05 nM
CCc1nc2cccc([C@@H]3C[C@H]3CNC(=O)C3CC3)c2o1	0.19 nM	0.05 nM
CCC(=O)NC[C@@H]1C[C@H]1c1cccc2nc(CC)oc12	0.44 nM	0.05 nM
O=C(NC[C@@H]1C[C@H]1c1cccc2nc(CCCCc3ccccc3)oc12)C1CC1	0.48 nM	0.05 nM
CCC(=O)NC[C@@H]1C[C@H]1c1cccc2nc(C(C)C)oc12	0.32 nM	4.9 nM

Results, then the compound that gave them:

Ki [1]	Ki [2]	Compound
1 nM	3.5 nM	CCCc1nc2cccc([C@@H]3C[C@H]3CNC(=O)NCC)c2o1
0.04 nM	0.94 nM	CCCC(=O)NC[C@@H]1C[C@H]1c1cccc2nc(CCC)oc12
12.6 nM	11.8 nM	CCNC(=O)NC[C@@H]1C[C@H]1c1cccc2nc(C(C)C)oc12
0.14 nM	0.18 nM	CCCc1nc2cccc([C@@H]3C[C@H]3CNC(=O)C3CC3)c2o1
0.75 nM	0.2 nM	CCc1nc2cccc([C@@H]3C[C@H]3CNC(=O)C(C)C)c2o1
